Columns and labels:
[1] = test system: Hepatitis B virus; assay: Antiviral activity against hepatitis B viral in human HepG2.2.15 cells assessed as […] antigen HBeAg secretion after 72 hrs by ELISA; assay type: functional, organism-based; details: HepG2 2.2.15, 72 h
[2] = test system: Hepatitis B virus; assay: Antiviral activity against hepatitis B viral in human HepG2.2.15 cells assessed as surface antigen HBsAg secretion after 72 hrs by ELISA; assay type: functional, organism-based; details: HepG2 2.2.15, 72 h
[3] = Cytotoxicity against human HepG 2.2.15 cells by MTT assay; assay type: cell-based, HepG2 2.2.15
[4] = test system: Hepatitis B virus; assay: Antiviral activity against hepatitis B viral in human HepG2.2.15 cells assessed as decrease in viral DNA replication treated for 7 days by real time PCR analysis; assay type: functional, organism-based; details: HepG2 2.2.15, 168 h
[5] = Selectivity index, ratio of CC50 for human HepG2.2.15 cells to IC50 for decrease in hepatitis B viral surface antigen HBsAg secretion in human HepG2(2.2.15) cells; assay type: functional
[6] = Selectivity index, ratio of CC50 for human HepG2.2.15 cells to IC50 for decrease in hepatitis B viral DNA replication in human HepG2(2.2.15) cells; assay type: functional
[7] = Selectivity index, ratio of CC50 for human HepG2.2.15 cells to IC50 for decrease in hepatitis B viral […] antigen HBeAg secretion in human HepG2(2.2.15) cells; assay type: functional

Structure (SMILES): CC(=O)c1ccc(OC(=O)c2cccs2)cc1
- IC50 [1]: > 3710 µM
- IC50 [2]: 3530 µM
- CC50 [3]: > 3710 µM
- IC50 [4]: > 927 µM
- Selectivity Index [5]: >1

Structure (SMILES): CC(=O)c1ccc(OC(=O)/C=C/c2ccccc2)cc1
- IC50 [1]: > 2870 µM
- IC50 [2]: 2400 µM
- CC50 [3]: > 2870 µM
- IC50 [4]: > 719 µM
- Selectivity Index [5]: >1.2

Structure (SMILES): COc1cc(/C=C/C(=O)OC[C@H]2O[C@@H](Oc3ccc(C(C)=O)cc3)[C@H](O)[C@@H](O)[C@@H]2O)cc(OC)c1OC
- IC50 [1]: > 1480 µM
- Selectivity Index [6]: 160.3
- IC50 [2]: 526 µM
- CC50 [3]: 925 µM
- IC50 [4]: 5.8 µM
- Selectivity Index [5]: 1.8

Structure (SMILES): COc1cc(O[C@@H]2O[C@H](CO)[C@@H](O)[C@H](O)[C@H]2O)cc(O)c1C(C)=O
- IC50 [1]: > 2370 µM
- Selectivity Index [6]: >25.7
- IC50 [2]: > 2370 µM
- CC50 [3]: > 2370 µM
- IC50 [4]: 92 µM

Structure (SMILES): CC(=O)c1ccc(O[C@@H]2O[C@H](CO[C@@H]3OC[C@@H](O)[C@H](O)[C@H]3O)[C@@H](O)[C@H](O)[C@H]2O)cc1
- IC50 [1]: > 2600 µM
- Selectivity Index [6]: >67.5
- IC50 [2]: > 2600 µM
- CC50 [3]: > 2600 µM
- IC50 [4]: 38.5 µM

Structure (SMILES): CC(=O)c1ccc(O[C@@H]2O[C@H](COC(=O)/C=C/c3ccc(O)c(O)c3)[C@@H](O)[C@H](O)[C@H]2O)cc1
- Selectivity Index [7]: 1.2
- IC50 [1]: 1280 µM
- Selectivity Index [6]: >197.9
- IC50 [2]: 291 µM
- CC50 [3]: 1580 µM
- IC50 [4]: 8 µM
- Selectivity Index [5]: 5.4

Structure (SMILES): COc1cccc(/C=C/C(=O)Oc2ccc(C(C)=O)cc2)c1
- IC50 [1]: > 2780 µM
- IC50 [2]: 1260 µM
- CC50 [3]: > 2780 µM
- IC50 [4]: > 696 µM
- Selectivity Index [5]: >2.2

Structure (SMILES): COc1ccc(/C=C/C(=O)Oc2ccc(C(C)=O)cc2)cc1
- IC50 [1]: > 3280 µM
- IC50 [2]: > 3280 µM
- CC50 [3]: > 3280 µM
- IC50 [4]: > 820 µM

Structure (SMILES): COc1ccc(/C=C/C(=O)Oc2ccc(C(C)=O)cc2)cc1OC
- IC50 [1]: > 2620 µM
- Selectivity Index [6]: >26
- IC50 [2]: 1040 µM
- CC50 [3]: > 2620 µM
- IC50 [4]: 100 µM
- Selectivity Index [5]: >2.5

Structure (SMILES): CC(=O)c1ccc(OC(=O)/C=C/c2ccc3c(c2)OCO3)cc1
- IC50 [1]: > 3040 µM
- IC50 [2]: 1890 µM
- CC50 [3]: > 3040 µM
- IC50 [4]: > 759 µM
- Selectivity Index [5]: >1.6

Structure (SMILES): COc1cc(/C=C/C(=O)Oc2ccc(C(C)=O)cc2)cc(OC)c1OC
- IC50 [1]: > 2420 µM
- Selectivity Index [6]: >21.1
- IC50 [2]: 286 µM
- CC50 [3]: > 2420 µM
- IC50 [4]: 115 µM
- Selectivity Index [5]: >8.5

Structure (SMILES): CC(=O)c1ccc(OC(=O)/C=C/c2cccc(F)c2)cc1
- Selectivity Index [7]: >1.4
- IC50 [1]: 2210 µM
- IC50 [2]: 1520 µM
- CC50 [3]: > 3110 µM
- IC50 [4]: > 777 µM
- Selectivity Index [5]: >2

Structure (SMILES): CC(=O)c1ccc(OC(=O)/C=C/c2ccc(F)cc2)cc1
- Selectivity Index [7]: >2.2
- IC50 [1]: 1520 µM
- IC50 [2]: 1510 µM
- CC50 [3]: > 3310 µM
- IC50 [4]: > 828 µM
- Selectivity Index [5]: >2.2

Structure (SMILES): CC(=O)c1ccc(OC(=O)/C=C/c2ccc(F)c(F)c2)cc1
- Selectivity Index [7]: >1.5
- IC50 [1]: 1710 µM
- IC50 [2]: 610 µM
- CC50 [3]: > 2600 µM
- IC50 [4]: > 649 µM
- Selectivity Index [5]: >4.3

Structure (SMILES): CC(=O)c1ccc(OC(=O)c2ccccc2)cc1
- IC50 [1]: > 3350 µM
- IC50 [2]: 2160 µM
- CC50 [3]: > 3350 µM
- IC50 [4]: 837 µM
- Selectivity Index [5]: >1.5

Structure (SMILES): COc1cc(C(=O)Oc2ccc(C(C)=O)cc2)cc(OC)c1OC
- IC50 [1]: > 2580 µM
- Selectivity Index [6]: 13.6
- IC50 [2]: 648 µM
- CC50 [3]: 1210 µM
- IC50 [4]: 88.8 µM
- Selectivity Index [5]: 1.9

Structure (SMILES): CC(=O)c1ccc(OC(=O)c2cccnc2)cc1
- IC50 [1]: > 3300 µM
- Selectivity Index [6]: 19.5
- IC50 [2]: 546 µM
- CC50 [3]: 3010 µM
- IC50 [4]: 154 µM
- Selectivity Index [5]: 5.5

Structure (SMILES): CC(=O)c1ccc(OC(=O)c2ccco2)cc1
- IC50 [1]: > 4050 µM
- IC50 [2]: 1830 µM
- CC50 [3]: > 4050 µM
- IC50 [4]: > 1010 µM
- Selectivity Index [5]: >2.2

Structure (SMILES): CC(=O)c1ccc(O[C@@H]2O[C@H](COC(=O)/C=C/c3ccccc3)[C@@H](O)[C@H](O)[C@H]2O)cc1
- IC50 [1]: > 1740 µM
- Selectivity Index [6]: >25.9
- IC50 [2]: > 1740 µM
- CC50 [3]: > 1740 µM
- IC50 [4]: 67.3 µM

Structure (SMILES): COc1cccc(/C=C/C(=O)OC[C@H]2O[C@@H](Oc3ccc(C(C)=O)cc3)[C@H](O)[C@@H](O)[C@@H]2O)c1
- IC50 [1]: > 1520 µM
- Selectivity Index [6]: >90.5
- IC50 [2]: 499 µM
- CC50 [3]: > 1520 µM
- IC50 [4]: 16.8 µM
- Selectivity Index [5]: >3

Structure (SMILES): COc1ccc(/C=C/C(=O)OC[C@H]2O[C@@H](Oc3ccc(C(C)=O)cc3)[C@H](O)[C@@H](O)[C@@H]2O)cc1
- IC50 [1]: > 2080 µM
- Selectivity Index [6]: 83.2
- IC50 [2]: 782 µM
- CC50 [3]: 1540 µM
- IC50 [4]: 18.5 µM
- Selectivity Index [5]: 2

Structure (SMILES): COc1ccc(/C=C/C(=O)OC[C@H]2O[C@@H](Oc3ccc(C(C)=O)cc3)[C@H](O)[C@@H](O)[C@@H]2O)cc1OC
- IC50 [1]: > 1450 µM
- Selectivity Index [6]: >165
- IC50 [2]: 696 µM
- CC50 [3]: > 1450 µM
- IC50 [4]: 8.8 µM
- Selectivity Index [5]: >2.1

Structure (SMILES): CC(=O)c1ccc(O[C@@H]2O[C@H](COC(=O)/C=C/c3ccc4c(c3)OCO4)[C@@H](O)[C@H](O)[C@H]2O)cc1
- IC50 [1]: > 1470 µM
- Selectivity Index [6]: >19.8
- IC50 [2]: 698 µM
- CC50 [3]: > 1470 µM
- IC50 [4]: 74.4 µM
- Selectivity Index [5]: >2.1

Structure (SMILES): CC(=O)c1ccc(O[C@@H]2O[C@H](COC(=O)/C=C/c3cccc(F)c3)[C@@H](O)[C@H](O)[C@H]2O)cc1
- IC50 [1]: > 1450 µM
- Selectivity Index [6]: 36.5
- IC50 [2]: 434 µM
- CC50 [3]: 828 µM
- IC50 [4]: 22.8 µM
- Selectivity Index [5]: 1.9

Structure (SMILES): CC(=O)c1ccc(O[C@@H]2O[C@H](COC(=O)/C=C/c3ccc(F)cc3)[C@@H](O)[C@H](O)[C@H]2O)cc1
- IC50 [1]: > 1520 µM
- Selectivity Index [6]: >23.4
- IC50 [2]: 613 µM
- CC50 [3]: 917 µM
- IC50 [4]: 64.8 µM
- Selectivity Index [5]: 1.5

Structure (SMILES): CC(=O)c1ccc(O[C@@H]2O[C@H](COC(=O)/C=C/c3ccc(F)c(F)c3)[C@@H](O)[C@H](O)[C@H]2O)cc1
- IC50 [1]: > 1770 µM
- Selectivity Index [6]: 38.9
- IC50 [2]: 515 µM
- CC50 [3]: 874 µM
- IC50 [4]: 22.5 µM
- Selectivity Index [5]: 1.7

Structure (SMILES): CC(=O)c1ccc(O[C@@H]2O[C@H](COC(=O)c3ccccc3)[C@@H](O)[C@H](O)[C@H]2O)cc1
- IC50 [1]: > 1680 µM
- Selectivity Index [6]: 11.2
- IC50 [2]: 678 µM
- CC50 [3]: 1050 µM
- IC50 [4]: 93.7 µM
- Selectivity Index [5]: 1.5

Structure (SMILES): COc1cc(C(=O)OC[C@H]2O[C@@H](Oc3ccc(C(C)=O)cc3)[C@H](O)[C@@H](O)[C@@H]2O)cc(OC)c1OC
- IC50 [1]: > 1490 µM
- Selectivity Index [6]: 42.9
- IC50 [2]: 1350 µM
- CC50 [3]: 890 µM
- IC50 [4]: 20.7 µM

Structure (SMILES): CC(=O)c1ccc(O[C@@H]2O[C@H](COC(=O)c3cccnc3)[C@@H](O)[C@H](O)[C@H]2O)cc1
- IC50 [1]: > 1650 µM
- Selectivity Index [6]: >16
- IC50 [2]: 1430 µM
- CC50 [3]: > 1650 µM
- IC50 [4]: 103 µM
- Selectivity Index [5]: >1.2

Structure (SMILES): CC(=O)c1ccc(O[C@@H]2O[C@H](COC(=O)c3ccco3)[C@@H](O)[C@H](O)[C@H]2O)cc1
- IC50 [1]: > 1880 µM
- Selectivity Index [6]: 11.7
- IC50 [2]: 571 µM
- CC50 [3]: 1170 µM
- IC50 [4]: 101 µM
- Selectivity Index [5]: 2.1

Structure (SMILES): CC(=O)c1ccc(O[C@@H]2O[C@H](COC(=O)c3cccs3)[C@@H](O)[C@H](O)[C@H]2O)cc1
- IC50 [1]: > 1710 µM
- Selectivity Index [6]: 50.1
- IC50 [2]: 301 µM
- CC50 [3]: 1570 µM
- IC50 [4]: 31.4 µM
- Selectivity Index [5]: 5.2

Structure (SMILES): CC(=O)c1ccc(O)cc1 [4-HYDROXYACETOPHENONE]
- Selectivity Index [7]: 1.3
- IC50 [1]: 1850 µM
- Selectivity Index [6]: 7.8
- IC50 [2]: 786 µM
- CC50 [3]: 2390 µM
- IC50 [4]: 306 µM
- Selectivity Index [5]: 3

Structure (SMILES): CC(=O)c1ccc(O[C@@H]2O[C@H](CO)[C@@H](O)[C@H](O)[C@H]2O)cc1 [PICEIN]
- IC50 [1]: > 3950 µM
- Selectivity Index [6]: >17.3
- IC50 [2]: > 3950 µM
- CC50 [3]: > 3950 µM
- IC50 [4]: 228 µM

Structure (SMILES): C[C@H](Cn1cnc2c(N)ncnc21)OCP(=O)(O)O [TENOFOVIR ANHYDROUS]
- IC50 [1]: > 1740 µM
- Selectivity Index [6]: >600.8
- IC50 [2]: > 1740 µM
- CC50 [3]: > 1740 µM
- IC50 [4]: 2.9 µM

Source: ChEMBL document CHEMBL3400016, “Isolation, synthesis and anti-hepatitis B virus evaluation of p-hydroxyacetophenone derivatives from Artemisia capillaris” (Bioorg Med Chem Lett, 2015)
